What is called EC50 is the concentration needed to bring the measured effect to its halfway point.

This is an account of results in patent publication US12629359B2 (UNIVERSITA' DEGLI STUDI DI BRESCIA, priority 2020, dated 2026).

Entries after “also recorded” stand apart in the source; their conditions may differ.

In data set [1] the target is T1, alpha-synuclein/Synapsin III interaction (Homo sapiens, UniProt O14994+P37840).
T1 construct: expressed in transfected cells; host or cells: neuronal-differentiated (retinoic acid) human SK-N-SH neuroblastoma cells, transient transfection with Lipofectamine 3000
Kind of data set: Acceptor photobleaching FRET of alpha-synuclein/Synapsin III interaction in neuronal-differentiated SK-N-SH cells. Format: cell-based. The following applies: 10 μM, 15 min; for stimulation of alpha-synuclein/Synapsin III interaction (FRET efficiency), in words: vs basal; for % FRET efficiency change vs MPH-treated cells: vs MPH 10 μM. How it is done:
The ability of the different compound to stimulate alpha-synuclein/Synapsin III interaction was evaluated by acceptor photobleaching FRET or FLIM in neuronal-like cells. In particular, we used neuronal-differentiated SK—N—SH neuroblastoma cells transiently transfected with red fluorescent protein (RFP)-tagged human wild type alpha-synuclein and green fluorescent protein (GFP)-tagged the human 63 kDa Synapsin III isoform.
Acceptor photobleaching FRET microscopy allows an accurate evaluation of protein-protein interaction through the measurement of FRET efficiency. This parameter is indicative of the increase of donor fluorescence after complete photobleaching of the acceptor fluorescence, within a FRET pair of fluorophores (where the emission wavelength of a donor falls within the excitation wavelength of an acceptor). Since FRET efficiency is detectable only when the two fluorophores are sufficiently close to ensure that their linked proteins are interacting, the molecular proximity of these latter results strictly dependent on this parameter^36,37. […] Human neuroblastoma SK—N—SH cells were grown in complete medium comprising Dulbecco's modified Eagle's medium with 1000 mg glucose/l supplemented with 10% heat-inactivated fetal bovine serum, 100 μg/ml penicillin and 100 μg/ml streptomycin. Cells were maintained at 37° C. under a humidified atmosphere of 5% CO2 and […]. For FRET studies, SK—N—SH cells were seeded onto poli-D-lysine-coated 13 mm glass coverslips in 24-well plates (15000 cells per coverslip) and were maintained in differentiation medium for ten days by daily adding 10 μM retinoic acid to the medium. […] Fixed cells were analyzed by means of a Zeiss confocal laser microscope LSM 880 (Carl Zeiss) with the laser set on A=488-543. After identifying double positive cells three-to-six regions of interest (ROI) were analyzed for 4 series. Two images of basal condition (Pre-bleaching) were acquired before bleaching the RFP acceptor fluorophore with laser 543 set at 65% power. Then, other two images were acquired after the bleaching (Post-bleaching). The FRET efficiency (intended as the GFP recovery after RFP photobleaching) was measured by using Zen black software (Carl Zeiss). The average intensity of the background (outside the cell) was subtracted from the average intensity of the ROI and all the FRET values resulting from the different ROI were used for statistical analysis.
Human neuroblastoma SK—N—SH cells were grown in complete medium comprising Dulbecco's modified Eagle's medium with 1000 mg glucose/l supplemented with 10% heat-inactivated fetal bovine serum, 100 μg/ml penicillin and 100 μg/ml streptomycin. Cells were maintained at 37° C. under a humidified atmosphere of 5% CO2 and […]. For FRET studies, SK—N—SH cells were seeded onto poli-D-lysine-coated 13 mm glass coverslips in 24-well plates (15000 cells per coverslip) and were maintained in differentiation medium for ten days by daily adding 10 μM retinoic acid to the medium. […] Fixed cells were analyzed by means of a Zeiss confocal laser microscope LSM 880 (Carl Zeiss) with the laser set on λ=488-543. After identifying double positive cells three-to-six regions of interest (ROI) were analyzed for 4 series. Two images of basal condition (Pre-bleaching) were acquired before bleaching the RFP acceptor fluorophore with laser 543 set at 65% power. Then, other two images were acquired after the bleaching (Post-bleaching). The FRET efficiency (intended as the GFP recovery after RFP photobleaching) was measured by using Zen black software (Carl Zeiss). The average intensity of the background (outside the cell) was subtracted from the average intensity of the ROI and all the FRET values resulting from the different ROI were used for statistical analysis.

The test system of data set [2] is primary mesencephalic cultures. The data set is described as follows: MTT cell viability assay. Format: cell-based, mouse. The following applies: 24 h. The procedure:
The cytotoxic effect of compounds treatment was measured by evaluating mitochondrial dehydrogenase activity using the MTT salt assay.
Neuronal differentiated SK—N—SH cells were thus exposed to different concentrations of I-threo, IV-threo, I-erythro, V-threo and V-erythro as described above, and then used for the MTT cell viability assay.
Animals: C57BL/6J wt mice (C57BL/6J) (Charles River, Wilmington, MA) used in this study, were bred in our animal house facility at the Department of Molecular and Translational Medicine of University of Brescia. Animals were maintained under a 12h light-dark cycle at a room temperature (rt) of 22° C. and had ad libitum food and water. All experiments were made in accordance to Directive 2010/63/EU of the European Parliament and of the Council of 22 Sep. 2010 on the protection of animals used. All experimental and surgical procedures conformed to the National Research Guide for the Care and Use of Laboratory Animals were approved by the Animal Research Committees of the University of Brescia (Protocol Permit 719/2015-PR). All achievements were made to minimize animal suffering and to reduce the number of animals used. Primary neuronal cultures from mesencephalic tissues were dissected from C57BL/6J 13-days embryos. Briefly, after mechanical dissociation the single cells were re-suspended in Neurobasal medium containing 100 μg/ml penicillin, 100 μg/ml streptomycin, 0.5 mM glutamine and 1% B27 supplement. Cells were then centrifuged and cell count and viability assays were performed using the Trypan Blue exclusion test. Cells were seeded onto poly-D-lysine-coated glass coverslides in 24-well plates (14 μg/mL) for immunocytochemistry (100000 cells/well). Cells were maintained at 37° C. under a humidified atmosphere of 5% CO2 and […] for at least 10 days in vitro (DIV 10) prior to their use to allow their maturation. At DIV 10, cells were treated with increasing concentrations (0.01 μM-0.1 μM-1 μM-[…]) of the different compounds (I-threo, IV-threo, I-erythro, V-threo, VI-threo). Twenty-four h after the treatments, culture medium was removed and 300 μL of MTT 0.5 mg/mL diluted in culture medium was added to each well. After 90′ incubation at 37° C., the medium was removed and 250 μL aliquots of DMSO were added to each well to solubilize the formazan crystals. Absorbance was measured at 570 nm using a microplate reader. Cell viability was expressed as absorbance value.

Data set [3] relates to advanced Parkinson's disease. The following applies: cited from earlier work.
Data set [4] has as its system aged human alpha-synuclein transgenic mouse model of Parkinson's disease. The following applies: independent of dopamine transporter inhibition; abolished by Synapsin III gene silencing; cited from earlier work.
The test system of data set [5] is alpha-synuclein aggregation in SK—N—SH cells. The data set is described as follows: Alpha-synuclein aggregation after glucose deprivation in SK-N-SH alpha-synuclein stable clones (immunocytochemistry). Format: cell-based, human. The following applies: for alpha-synuclein aggregates seen in images after GD: 24 h, vs non-treated (NT) cells, preliminary. How it is done:
Human neuroblastoma SK—N—SH full length (fl) alpha-synuclein stable clones were seeded onto poly-D-lysine-coated glass coverslides in 24-well plates and were grown in complete medium comprising Dulbecco's modified Eagle's medium with 1000 mg glucose/l supplemented with 10% heat-inactivated fetal bovine serum, 100 μg/ml penicillin and 100 μg/ml streptomycin. Cells were maintained at 37° C. under a humidified atmosphere of 5% CO2 and […]. At 80% confluence, cells underwent glucose deprivation (GD) in order to induce alpha-synuclein aggregation (Bellucci, A.; et al. Journal of neurochemistry 2008, 106, 560-577). Briefly, GD was performed through an incubation of the cells with Hank's balanced salt solution supplemented with 2 mM glutamine and 10% heat-inactivated fetal bovine serum, for 1 h at 37° C. […] After 24 h of treatment, cells were fixed by incubating for 15 min in 4% paraformaldehyde with 4% sucrose in 1 M PBS, pH 7.4. The fixed cells were then stored in PBS-containing 0.05% sodium azide. Slides were incubated for 1 h at room temperature in blocking solution [2% w/v bovine serum albumin (BSA) plus 3% v/v normal goat serum in PBS], then overnight at 4° C. with the primary antibody (Syn211 antibody against alpha-synuclein) at the optimal working dilution. On the following day, cells were incubated for 1 h at room temperature with the Cy3-conjugated secondary antibody diluted in 0.1% Triton X-100 PBS plus BSA 1 mg/ml. Finally, cell nuclei were counterstained with Hoechst 33258 dye, and the coverslips were mounted onto glass slides using Vectashield.

The test system of data set [6] is alpha-synuclein aggregation in primary mesencephalic neurons. Kind of data set: Alpha-synuclein aggregation in primary mouse midbrain neurons exposed to glucose deprivation. The following applies: I-threo, VI-threo 50 and 100 nM, MPH 100 nM. Format: cell-based.

T1 sequence (O14994 whole entry, one chain of several): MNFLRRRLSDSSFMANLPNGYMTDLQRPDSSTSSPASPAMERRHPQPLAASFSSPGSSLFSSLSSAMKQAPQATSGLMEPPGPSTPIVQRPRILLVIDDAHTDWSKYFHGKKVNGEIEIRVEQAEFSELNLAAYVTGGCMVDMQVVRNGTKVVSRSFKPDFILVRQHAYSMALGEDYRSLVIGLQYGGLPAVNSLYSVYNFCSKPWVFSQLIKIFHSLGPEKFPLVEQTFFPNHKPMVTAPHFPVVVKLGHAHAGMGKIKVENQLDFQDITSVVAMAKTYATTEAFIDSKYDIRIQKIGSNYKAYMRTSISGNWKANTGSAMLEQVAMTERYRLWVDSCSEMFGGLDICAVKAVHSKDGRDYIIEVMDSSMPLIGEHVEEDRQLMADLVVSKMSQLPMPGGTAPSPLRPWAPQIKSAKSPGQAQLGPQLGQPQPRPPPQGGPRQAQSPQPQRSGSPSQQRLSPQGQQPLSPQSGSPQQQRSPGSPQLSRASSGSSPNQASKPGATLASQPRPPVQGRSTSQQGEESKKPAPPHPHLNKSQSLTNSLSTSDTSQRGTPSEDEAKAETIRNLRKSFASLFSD

Consider `COC(=O)[C@@H](c1ccc2ccccc2c1)C1CCCCN1.Cl` (stereo partly drawn) [IV-threo], for which the “stimulation of alpha-synuclein/Synapsin III interaction (FRET efficiency), in words” value in data set [1] is recorded as “not able to stimulate alpha-synuclein/Synapsin III interaction; also recorded: No significant increase”. Also, the “cell viability (MTT) at 100 μM” value in data set [2] (100 μM) is recorded as “the same profile of I-threo; also recorded: significant decrease in cell viability”.
For `COC(=O)[C@@H](Cc1ccc(C)cc1)C1CCCCN1.Cl` (stereo partly drawn) [IX-threo], the “% FRET efficiency change vs MPH-treated cells” value in data set [1] is “+4.6%”.
Take `COC(=O)C(c1ccccc1)C1CCCCN1` (stereo not shown) [MPH, Methylphenidate, reference compound]: the freezing of gait entry in data set [3] is “efficiently counteract freezing of gait”. Besides, the “Synapsin III-dependent locomotor activity” value in data set [4] is “over-stimulate a Synapsin III-dependent locomotor activity”. Further, in data set [5] (10 μM), the “alpha-synuclein aggregates seen in images after GD” value is “a reduction in the formation of alpha-synuclein aggregates”. The EC50 in data set [5] (Homo sapiens, SK-N-SH cells, read-out: EC50 in reducing alpha-synuclein aggregation) came to 37.3 µM.
As for `COC(=O)[C@@H](c1ccc(-c2ccccc2)cc1)C1CCCCN1.Cl` (stereo partly drawn) [V-threo], the “stimulation of alpha-synuclein/Synapsin III interaction (FRET efficiency), in words” value in data set [1] is recorded as “not able to stimulate alpha-synuclein/Synapsin III interaction; also recorded: No significant increase”. The “concentration from which markedly toxic (MTT)” value in data set [2] (0.01-100 μM tested) is at least 100 nM. Further, the “cytotoxicity (MTT), in words” value in data set [2] (low concentrations) is “cytotoxicity at low concentrations”.
For the compound `COC(=O)[C@@H](c1ccc(C)cc1)C1CCCCN1C.Cl` (stereo partly drawn) [VI-threo, threo methyl 2-(1-methylpiperidin-2-yl)-2-(p-tolyl)acetate hydrochloride], the “% FRET efficiency change vs control untreated cells” value in data set [1] (neuronally differentiated SK-N-SH cells) is listed as “+3.4%”. Also, in data set [6], the “alpha-synuclein inclusion formation (total immunofluorescence intensity and particle size)” value was “did not reduce alpha-synuclein aggregation”. Besides, the “alpha-synuclein aggregates seen in images after GD” value in data set [5] (10 μM) is recorded as “no aggregates were observed”. Besides, the “formation of alpha-synuclein inclusions after GD (immunofluorescence intensity and average particle size)” value in data set [5] (10 μM, 24 h after 1 h glucose deprivation, vs untreated, hydrochloride) is “significantly reduce the formation of alpha-synuclein inclusions; also recorded: significantly reduce alpha-synuclein aggregation in vitro”. In data set [2] (concentrations reducing aggregation or stimulating interaction), the “toxic effects (MTT) at the working concentrations” value is given as “did not exhibit toxic effects”.
On to `COC(=O)[C@@H](Cc1ccccc1)C1CCCCN1.Cl` (stereo partly drawn) [VII-threo, threo methyl 3-phenyl-2-(piperidin-2-yl)propanoate hydrochloride], for which, in data set [1], the “% FRET efficiency change vs MPH-treated cells” value was “+4.3%”.
